Data reported in ChEMBL document CHEMBL1201862, “PubChem BioAssay data set” (2004).
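Step 1: Grow cells in 96-well plates. Step 2: Expose to compound for 48 hours at 5 concentrations. Step 3: Interpolate endpoints linearly; if unreached, use highest concentration. GI50 is the concentration that inhibits growth by half.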 Activity calls are given as the source filed them. Rule as the data show it: active = GI50 up to about 1.1 µM and inactive = higher.

Columns and labels:
Test in all cases: DTP human tumour cell line panel, 48 h
IGROV-1 = system: IGROV-1
HOP-62 = system: HOP-62
K562 = system: K562
SF-539 = system: SF-539
LOX IMVI = system: LOX IMVI
HCT-15 = system: HCT-15
U-251 = system: U-251
OVCAR-3 = system: OVCAR-3
TK-10 = system: TK-10
CAKI-1 = system: CAKI-1
UACC-257 = system: UACC-257
DLD-1 = system: DLD-1
A549 = system: A549
HCT-116 = system: HCT-116
RXF 393 = system: RXF 393
MCF7 = system: MCF7
DU-145 = system: DU-145
SK-MEL-2 = system: SK-MEL-2
PC-3 = system: PC-3
BT-549 = system: BT-549

Measured: GI50

CN(C)CCNC(=O)C1COc2cc(-c3cc(=O)c4ccccc4o3)ccc2O1 (configuration not stated)
inactive: IGROV-1 22.2 µM | HOP-62 33 µM | K562 36.7 µM | SF-539 17.3 µM | LOX IMVI 19.6 µM | U-251 20.1 µM | OVCAR-3 20.5 µM | TK-10 29.6 µM | CAKI-1 17.1 µM | UACC-257 18.5 µM | DLD-1 27.3 µM | A549 16.9 µM | HCT-116 15.1 µM | RXF 393 21.4 µM
27.7 µM: HCT-15

COC1OC(CO)C(O)C(O)C1Br (configuration not stated)
> 100 µM: HCT-15
inactive: IGROV-1 > 100 µM | HOP-62 > 100 µM | K562 > 100 µM | SF-539 > 100 µM | LOX IMVI > 100 µM | U-251 > 100 µM | OVCAR-3 > 100 µM | TK-10 > 100 µM | CAKI-1 > 100 µM | UACC-257 > 100 µM | DLD-1 > 100 µM | A549 > 100 µM | HCT-116 > 100 µM | RXF 393 > 100 µM

C/C(CC(=O)N(C(C)C)C(C)C)=N\NC(=O)c1ccncc1
> 100 µM: HCT-15
inactive: IGROV-1 > 100 µM | K562 > 100 µM | SF-539 > 100 µM | LOX IMVI > 100 µM | U-251 > 100 µM | OVCAR-3 > 100 µM | UACC-257 > 100 µM | DLD-1 > 100 µM | A549 > 100 µM | HCT-116 > 100 µM | RXF 393 > 100 µM

Cc1ccc(C2SC(=N)Nc3c2c(C)nn3C(=O)c2ccc(Cl)cc2)cc1 (configuration not stated)
> 10 µM: HCT-15
inactive: IGROV-1 > 10 µM | HOP-62 > 10 µM | K562 > 10 µM | MCF7 > 10 µM | SF-539 > 10 µM | LOX IMVI > 10 µM | DU-145 > 10 µM | U-251 > 10 µM | OVCAR-3 > 10 µM | SK-MEL-2 > 10 µM | PC-3 > 10 µM | TK-10 > 10 µM | BT-549 > 10 µM | CAKI-1 > 10 µM | UACC-257 > 10 µM | A549 > 10 µM | HCT-116 > 10 µM | RXF 393 > 10 µM

CC(=O)OC/C=C(/CCl)CCC(Br)C(C)(C)Br.CC(=O)OC/C=C(\CCl)CCC(Br)C(C)(C)Br (configuration not stated)
inactive: IGROV-1 > 10 µM | HOP-62 > 10 µM | K562 > 10 µM | MCF7 > 10 µM | SF-539 > 10 µM | LOX IMVI > 10 µM | DU-145 > 10 µM | U-251 > 10 µM | OVCAR-3 > 10 µM | SK-MEL-2 > 10 µM | PC-3 > 10 µM | TK-10 > 10 µM | BT-549 > 10 µM | CAKI-1 > 10 µM | UACC-257 > 10 µM | A549 > 10 µM | HCT-116 > 10 µM | RXF 393 > 10 µM
> 10 µM: HCT-15

O=C1C2=C(c3ccccc31)C(c1ccc(F)cc1)N1C(=O)CCSC1=N2 (configuration not stated)
98.4 µM: HCT-15
inactive: IGROV-1 > 100 µM | HOP-62 > 100 µM | K562 > 100 µM | SF-539 > 100 µM | U-251 > 100 µM | OVCAR-3 > 100 µM | SK-MEL-2 > 100 µM | TK-10 > 100 µM | CAKI-1 69 µM | UACC-257 > 100 µM | DLD-1 > 100 µM | A549 > 100 µM | HCT-116 95.7 µM

N/C(=N\O)N/N=C/c1ccc(C(F)(F)F)cc1
inactive: IGROV-1 7.41 µM | HOP-62 15.5 µM | K562 16.9 µM | SF-539 15.8 µM | U-251 16.8 µM | OVCAR-3 13.5 µM | SK-MEL-2 18.2 µM | TK-10 23.9 µM | CAKI-1 6.46 µM | UACC-257 32.2 µM | DLD-1 24.7 µM | A549 5.15 µM | HCT-116 32.9 µM | RXF 393 29.9 µM

Nc1nc(SCCNC(=O)CCc2ccc(O)cc2)nc2c1ncn2C1OC(CO)C(O)C1O (configuration not stated)
inactive: IGROV-1 > 203 µM | HOP-62 > 203 µM | K562 > 203 µM | SF-539 > 203 µM | LOX IMVI > 203 µM | U-251 > 203 µM | OVCAR-3 > 203 µM | SK-MEL-2 > 203 µM | TK-10 > 203 µM | CAKI-1 > 203 µM | UACC-257 > 203 µM | DLD-1 > 203 µM | A549 > 203 µM | HCT-116 > 203 µM
> 203 µM: HCT-15

CC1(c2ccc(Cl)cc2)CC(c2ccc(Cl)cc2)=C(C#N)C(=C(C#N)C#N)N1 (configuration not stated)
inactive: IGROV-1 14.7 µM | HOP-62 7.36 µM | K562 13.8 µM | MCF7 18.9 µM | SF-539 18.4 µM | LOX IMVI 17.3 µM | DU-145 14.9 µM | U-251 12.2 µM | OVCAR-3 11.3 µM | SK-MEL-2 22.9 µM | PC-3 16.4 µM | TK-10 17.8 µM | BT-549 19.4 µM | CAKI-1 16.8 µM | UACC-257 17.7 µM | A549 20.4 µM | HCT-116 14.6 µM | RXF 393 13.1 µM
15.8 µM: HCT-15
